Data reported in patent EP4667467A1, “PROTAC DEGRADERS OF MLLT1 AND/OR MLLT3” (Dark Blue Therapeutics Ltd, priority 2024, dated 2025).

Target: T1, MLLT1 (Homo sapiens, UniProt Q03111)
T1 construct: endogenous in cells; host or cells: MV4-11 (ATCC CRL-9591)
T1 sequence (Q03111 1-559): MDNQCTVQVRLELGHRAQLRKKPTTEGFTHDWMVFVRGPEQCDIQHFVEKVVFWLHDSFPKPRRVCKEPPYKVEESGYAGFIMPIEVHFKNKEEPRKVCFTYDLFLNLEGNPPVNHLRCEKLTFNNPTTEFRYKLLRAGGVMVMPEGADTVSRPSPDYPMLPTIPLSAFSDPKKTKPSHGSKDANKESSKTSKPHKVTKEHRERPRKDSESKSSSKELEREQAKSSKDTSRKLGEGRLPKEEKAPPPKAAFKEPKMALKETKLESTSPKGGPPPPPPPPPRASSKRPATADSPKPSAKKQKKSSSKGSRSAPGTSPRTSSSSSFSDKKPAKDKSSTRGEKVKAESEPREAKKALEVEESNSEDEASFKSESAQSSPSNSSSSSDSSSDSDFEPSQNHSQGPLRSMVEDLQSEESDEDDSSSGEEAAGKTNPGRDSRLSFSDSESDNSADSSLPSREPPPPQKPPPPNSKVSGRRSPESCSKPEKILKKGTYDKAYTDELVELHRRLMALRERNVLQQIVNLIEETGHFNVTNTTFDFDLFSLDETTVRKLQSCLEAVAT
Experiment: MLLT1 Degradation Assay (JESS automated chemiluminescent detection, MV4-11 cells)
Assay type: cell-based
Conditions: 24h, with respect to DMSO control; for MLLT1 % Degradation @ 0.01 µM: 0.01 µM (10 nM) test compound; for MLLT1 % Degradation @ 0.1 µM: 0.1 µM (100 nM) test compound; for MLLT 1 % Degradation @ 1 µM: 1 µM (1000 nM) test compound
Procedure: MLLT1 degradation efficacy of compounds were tested in an automated chemiluminescent detection system (JESS, Cat# 004-650). […] 10 mM DMSO stocks were prepared, and cells were treated with three concentrations of test compounds viz. 1000, 100 and 10 nM at a final DMSO concentration of 0.1% and incubated for 24h at 37°C, 5% CO2. […] Post run, data were analysed using "Compass for SW" software for chemiluminescent detection. The peak area for each band was used for the calculation of MLLT1 degradation with respect to DMSO control. Data is shown as "MLLT1 % degradation".

| Molecule | MLLT1 % Degradation @ 0.01 µM | MLLT1 % Degradation @ 0.1 µM | MLLT 1 % Degradation @ 1 µM |
| --- | --- | --- | --- |
| 3-(1-(3-(1-(2-(2,6-dioxopiperidin-3-yl)-1,3-dioxoisoindolin-4-yl)piperidin-4-yl)propyl)-1H-pyrazol-4-yl)-N-(2-((R)-1-methylpyrrolidin-2-yl)-1H-pyrrolo[3,2-c]pyridin-6-yl)benzamide [Example 47] | C (Category C: 25% ≤ C < 50% degradation) | B (Category B: 50% ≤ B < 75% degradation) | A (Category A: A ≥ 75% degradation) |
| CN1CCC[C@@H]1c1cc2cnc(NC(=O)c3ccc(-c4ccn(CCCC#Cc5cccc6c5CN(C5CCC(=O)NC5=O)C6=O)n4)cc3)cc2[nH]1 (mixture of isomers) [Example 20, 4-(1-(5-(2-(2,6-dioxopiperidin-3-yl)-1-oxoisoindolin-4-yl)pent-4-yn-1-yl)-1H-pyrazol-3-yl)-N-(2-((R)-1-methylpyrrolidin-2-yl)-1H-pyrrolo[3,2-c]pyridin-6-yl)benzamide] | B (Category B: 50% ≤ B < 75% degradation) | B (Category B: 50% ≤ B < 75% degradation) | C (Category C: 25% ≤ C < 50% degradation) |
| CN1CCC[C@@H]1c1cc2cnc(NC(=O)N3CCC(CCC#Cc4cccc5c4CN(C4CCC(=O)NC4=O)C5=O)CC3)cc2[nH]1 (stereo partly drawn) [Example 1, 4-(4-(2-(2,6-dioxopiperidin-3-yl)-1-oxoisoindolin-4-yl)but-3-yn-1-yl)-N-(2-((R)-1-methylpyrrolidin-2-yl)-1H-pyrrolo[3,2-c]pyridin-6-yl)piperidine-1-carboxamide] | C (Category C: 25% ≤ C < 50% degradation) | C (Category C: 25% ≤ C < 50% degradation) | C (Category C: 25% ≤ C < 50% degradation) |
| CN1CCC[C@@H]1c1cc2cnc(NC(=O)c3ccc(OCC#Cc4cccc5c4CN(C4CCC(=O)NC4=O)C5=O)nc3)cc2[nH]1 (stereo partly drawn) [Example 2, 6-((3-(2-(2,6-dioxopiperidin-3-yl)-1-oxoisoindolin-4-yl)prop-2-yn-1-yl)oxy)-N-(2-((R)-1-methylpyrrolidin-2-yl)-1H-pyrrolo[3,2-c]pyridin-6-yl)nicotinamide] | A (Category A: A ≥ 75% degradation) | A (Category A: A ≥ 75% degradation) | A (Category A: A ≥ 75% degradation) |
| CN1CCC[C@@H]1c1cc2cnc(NC(=O)c3ccc(CC4CCN(c5cccc6c5C(=O)N(C5CCC(=O)NC5=O)C6=O)CC4)cc3)cc2[nH]1 (stereo partly drawn) [Example 3, 4-((1-(2-(2,6-dioxopiperidin-3-yl)-1,3-dioxoisoindolin-4-yl)piperidin-4-yl)methyl)-N-(2-((R)-1-methylpyrrolidin-2-yl)-1H-pyrrolo[3,2-c]pyridin-6-yl)benzamide] | C (Category C: 25% ≤ C < 50% degradation) | A (Category A: A ≥ 75% degradation) | A (Category A: A ≥ 75% degradation) |
| CN1CCC[C@@H]1c1cc2cnc(NC(=O)c3ccc(CCC4CCN(c5cccc6c5C(=O)N(C5CCC(=O)NC5=O)C6=O)CC4)cc3)cc2[nH]1 (stereo partly drawn) [Example 4, 4-(2-(1-(2-(2,6-dioxopiperidin-3-yl)-1,3-dioxoisoindolin-4-yl)piperidin-4-yl)ethyl)-N-(2-((R)-1-methylpyrrolidin-2-yl)-1H-pyrrolo[3,2-c]pyridin-6-yl)benzamide] | B (Category B: 50% ≤ B < 75% degradation) | A (Category A: A ≥ 75% degradation) | A (Category A: A ≥ 75% degradation) |
| CN1CCC[C@@H]1c1cc2cnc(NC(=O)c3ccc(N4CCN(CC5CCN(c6cccc7c6C(=O)N(C6CCC(=O)NC6=O)C7=O)CC5)CC4)nc3)cc2[nH]1 (stereo partly drawn) [Example 5, 6-(4-((1-(2-(2,6-dioxopiperidin-3-yl)-1,3-dioxoisoindolin-4-yl)piperidin-4-yl)methyl)piperazin-1-yl)-N-(2-((R)-1-methylpyrrolidin-2-yl)-1H-pyrrolo[3,2-c]pyridin-6-yl)nicotinamide] | B (Category B: 50% ≤ B < 75% degradation) | A (Category A: A ≥ 75% degradation) | A (Category A: A ≥ 75% degradation) |
| CN1CCC[C@@H]1c1cc2cnc(NC(=O)c3ccc(N4CCN(CC#Cc5cccc6c5CN(C5CCC(=O)NC5=O)C6=O)CC4)nc3)cc2[nH]1 (stereo partly drawn) [Example 6, 6-(4-(3-(2-(2,6-dioxopiperidin-3-yl)-1-oxoisoindolin-4-yl)prop-2-yn-1-yl)piperazin-1-yl)-N-(2-((R)-1-methylpyrrolidin-2-yl)-1H-pyrrolo[3,2-c]pyridin-6-yl)nicotinamide] | A (Category A: A ≥ 75% degradation) | A (Category A: A ≥ 75% degradation) | B (Category B: 50% ≤ B < 75% degradation) |
| CN1CCC[C@@H]1c1cc2cnc(NC(=O)c3ccc(CCCCC#Cc4cccc(C(=O)N[C@H]5CCC(=O)NC5=O)n4)cc3)cc2[nH]1 [Example 7, N-((S)-2,6-dioxopiperidin-3-yl)-6-(6-(4-((2-((R)-1-methylpyrrolidin-2-yl)-1H-pyrrolo[3,2-c]pyridin-6-yl)carbamoyl)phenyl)hex-1-yn-1-yl)picolinamide] | A (Category A: A ≥ 75% degradation) | A (Category A: A ≥ 75% degradation) | A (Category A: A ≥ 75% degradation) |
| CN1CCC[C@@H]1c1cc2cnc(NC(=O)c3ccc(CCCCC#Cc4cccc5c4CN(C4CCC(=O)NC4=O)C5=O)cc3)cc2[nH]1 (stereo partly drawn) [Example 8, 4-(6-(2-(2,6-dioxopiperidin-3-yl)-1-oxoisoindolin-4-yl)hex-5-yn-1-yl)-N-(2-((R)-1-methylpyrrolidin-2-yl)-1H-pyrrolo[3,2-c]pyridin-6-yl)benzamide] | A (Category A: A ≥ 75% degradation) | A (Category A: A ≥ 75% degradation) | A (Category A: A ≥ 75% degradation) |
| CN1CCC[C@@H]1c1cc2cnc(NC(=O)c3ccc(CCCCC#Cc4cccc(N5CCC(=O)NC5=O)n4)cc3)cc2[nH]1 [Example 9, (R)-4-(6-(6-(2,4-dioxotetrahydropyrimidin-1(2H)-yl)pyridin-2-yl)hex-5-yn-1-yl)-N-(2-(1-methylpyrrolidin-2-yl)-1H-pyrrolo[3,2-c]pyridin-6-yl)benzamide] | A (Category A: A ≥ 75% degradation) | A (Category A: A ≥ 75% degradation) | A (Category A: A ≥ 75% degradation) |
| CN1CCC[C@@H]1c1cc2cnc(NC(=O)c3ccc(CCCCC#Cc4cccc5c4CN(C4CCC(=O)NC4=O)C5=O)nc3)cc2[nH]1 (stereo partly drawn) [Example 10, 6-(6-(2-(2,6-dioxopiperidin-3-yl)-1-oxoisoindolin-4-yl)hex-5-yn-1-yl)-N-(2-((R)-1-methylpyrrolidin-2-yl)-1H-pyrrolo [3,2-c]pyridin-6-yl) nicotinamide] | A (Category A: A ≥ 75% degradation) | A (Category A: A ≥ 75% degradation) | B (Category B: 50% ≤ B < 75% degradation) |
| CN1CCC[C@@H]1c1cc2cnc(NC(=O)c3ccc(CCCC#Cc4ccc(C(=O)N[C@H]5CCC(=O)NC5=O)nc4)cc3)cc2[nH]1 [Example 11, N-((S)-2,6-dioxopiperidin-3-yl)-5-(5-(4-((2-((R)-1-methylpyrrolidin-2-yl)-1H-pyrrolo[3,2-c]pyridin-6-yl)carbamoyl)phenyl)pent-1-yn-1-yl)picolinamide] | D (Category D: D < 25% degradation) | C (Category C: 25% ≤ C < 50% degradation) | B (Category B: 50% ≤ B < 75% degradation) |
| CN1CCC[C@@H]1c1cc2cnc(NC(=O)c3ccc(CCCC#Cc4cccc5c4CN(C4CCC(=O)NC4=O)C5=O)nc3)cc2[nH]1 (stereo partly drawn) [Example 12, 6-(5-(2-(2,6-dioxopiperidin-3-yl)-1-oxoisoindolin-4-yl)pent-4-yn-1-yl)-N-(2-((R)-1-methylpyrrolidin-2-yl)-1H-pyrrolo[3,2-c]pyridin-6-yl)nicotinamide] | B (Category B: 50% ≤ B < 75% degradation) | A (Category A: A ≥ 75% degradation) | A (Category A: A ≥ 75% degradation) |
| CN1CCC[C@@H]1c1[nH]c2cc(NC(=O)CCCCCCC#Cc3cccc4c3CN(C3CCC(=O)NC3=O)C4=O)ncc2c1Cl (stereo partly drawn) [Example 13, N-(3-chloro-2-((R)-1-methylpyrrolidin-2-yl)-1H-pyrrolo [3,2-c]pyridin-6-yl)-9-(2-(2,6-dioxopiperidin-3-yl)-1-oxoisoindolin-4-yl) non-8-ynamide] | A (Category A: A ≥ 75% degradation) | A (Category A: A ≥ 75% degradation) | A (Category A: A ≥ 75% degradation) |
